Test system: IFN-a/Jak1Tyk2
Assay: Co-stimulation assay in lysed whole blood: IFNa (JAK1/TYK2) stimulated STAT1 phosphorylation
Format: cell-based
Details: 20 min, lysed human whole blood, IFNa 100 ng/mL + GM-CSF 10 ng/mL, pSTAT1 by flow cytometry
Description: Dilute RBC lysis buffer to 1× in distilled water. Add 2 mL blood to 38 mL of 1×RBC-lysis buffer. Incubate for 15 mins at RT, in dark. Spin at 300 g, 5 mins, to collect the pellet. Re-lyse if necessary. Re-suspend pellet in 5 mL of cRPMI.
Aliquot 80 μL of lysed human blood in to wells of 96 deep-well plate. Add 10 μl of (10× conc.) of different concentrations of compounds to all wells except controls (unstained and unstimulated) and mix it with the help of 100 uL multichannel. Add 10 uL of RPMI media in controls. For dilution of compounds and dilution range please refer Appendix. Incubate on water bath or CO2 incubator for 1 hour at 37° C. Add 10 μl of (10× conc.) of cytokine mix (GM-CSF and IFNa) (final conc. 10 ng/mL of GM-CSF and 100 ng/mL of IFNa) to each well except unstimulated and unstained controls and incubate further for 20 minutes on water bath at 37° C.
Add 900 μL of prewarmed 1× Fix/Lyse solution (Appendix) and mix it properly using 1000 μl multichannel, incubate further on water bath at 37° C. for 10 minutes (which includes time of addition). Centrifuge at 800×g for 5 minutes at 40° C.; remove 900 uL of supernatant and add 900 μL of 1×PBS. Centrifuge at 800×g for 5 minutes at 40° C., remove 900 μL of supernatant. Wash one more time with 900 μL of PBS (optional) and resuspend pellets in 100 uL of PBS.
Disrupt the pellet by gentle tapping and resuspend in 1000 μL of BD Phosflow Perm Buffer III and incubate plate on ice for 30 minutes. Centrifuge plate at 800×g for 5 minutes at 40° C. Wash two more times with 1000 μL of BD Pharmingen Stain Buffer.
Disrupt the pellet by gentle tapping. Resuspend pellets in 100 uL of Stain Buffer and add 5 μL of pSTAT5_AF488 Ab and 5 uL of pSTAT1_PE in all wells except unstained control and mix properly using 200 μl multichannel, incubate overnight at […]. Add 900 μL of wash buffer and centrifuge at 1800 rpm for 3 minutes at […]. Wash one more time with 1000 μL of BD Pharmingen Stain Buffer. Finally resuspend the pellet in 300 uL of BD Pharmingen Stain Buffer. Transfer the cells to 96-well v-bottom plate and acquire the cells in Beckman Coulter CytExpert. Acquiring cells in Flow Cytometer: Keep the threshold value to 250 and cell concentration should not exceed 100-500 cells/μL. Acquire at least 5,000-10,000 cells.
Cytokine dilution: 1) GM-CSF Stock at 100 ug/mL. Prepare an intermediate dilution of 1 ug/mL by adding 2 uL of stock into 198 uL of cRPMI. Further dilute to 100 ng/mL by adding 100 uL of the intermediate stock to 900 uL of cRPMI. 2) IFNa Stock at 200 ug/mL. Dilute IFNa stock 1:200 by adding 5 uL of stock into the 1000 uL of 100 ng/mL GM-CSF working stock as above to give a combined working stock of 1000 ng/mL of IFNa and 100 ng/mL GM-CSF (10×). Keep it on ice until used.
Lyse/Fix buffer preparation: Dilute 5× Lyse/Fix buffer to 1× using MQ water and keep at 37° C. until used.
BD Phosflow perm buffer III: Keep on ice/fridge.

Row | SMILES | IC50 [µM]
1 | CNC(=O)c1nscc1Nc1cc(NC)n2ncc(C(=O)NC3CC3)c2n1 [Compound 43, 4-((3-(cyclopropylcarbamoyl)-7-(methylamino)pyrazolo[1,5-a]pyrimidin-5-yl)amino)-N-methylisothiazole-3-carboxamide] | < 0.1
2 | CNC(=O)c1cscc1Nc1cc(NC)n2ncc(C(=O)NC3CC3)c2n1 [Compound 44, N-cyclopropyl-7-(methylamino)-5-((4-(methylcarbamoyl)thiophen-3-yl)amino)pyrazolo[1,5-a]pyrimidine-3-carboxamide] | 0.1 to 1
3 | CCOC(=O)c1nscc1Nc1cc(NC)n2ncc(C(=O)NCCOC)c2n1 [Compound 45, ethyl 4-((3-((2-methoxyethyl)carbamoyl)-7-(methylamino)pyrazolo[1,5-a]pyrimidin-5-yl)amino)isothiazole-3-carboxylate] | > 0.3
4 | CNc1cc(Nc2csnc2C(=O)O)nc2c(C(=O)NCCOC)cnn12 [Compound 46, 4-((3-((2-methoxyethyl)carbamoyl)-7-(methylamino)pyrazolo[1,5-a]pyrimidin-5-yl)amino)isothiazole-3-carboxylic acid] | > 0.3
5 | CNc1cc(Nc2cnn(CCOC)c2)nc2c(C(=O)NC3CC3)cnn12 [Compound 47, N-cyclopropyl-5-((1-(2-methoxyethyl)-1H-pyrazol-4-yl)amino)-7-(methylamino)pyrazolo[1,5-a]pyrimidine-3-carboxamide] | > 0.3
6 | CNc1cc(Nc2cccc(N3CCN(C)CC3)c2)nc2c(C(=O)NC3CC3)cnn12 [Compound 51, N-cyclopropyl-7-(methylamino)-5-((3-(4-methylpiperazin-1-yl)phenyl)amino)pyrazolo[1,5-a]pyrimidine-3-carboxamide] | < 0.1
7 | CNc1cc(Nc2cccc(N3CCOCC3)c2)nc2c(C(=O)NC3CC3)cnn12 [Compound 55, N-cyclopropyl-7-(methylamino)-5-((3-morpholinophenyl)amino)pyrazolo [1,5-a]pyrimidine-3-carboxamide] | < 0.1
8 | CNc1cc(Nc2cc(C)cnc2OC)nc2c(C(=O)NC3CC3)cnn12 [Compound 56, N-cyclopropyl-5-((2-methoxy-5-methylpyridin-3-yl)amino)-7-(methylamino)pyrazolo[1,5-a]pyrimidine-3-carboxamide] | 0.1 to 1
9 | CNc1cc(Nc2cc(Cl)ccc2OC(F)(F)F)nc2c(C(=O)NC3CC3)cnn12 [Compound 57, 5-((5-chloro-2-(trifluoromethoxy)phenyl)amino)-N-cyclopropyl-7-(methylamino)pyrazolo[1,5-a]pyrimidine-3-carboxamide] | 0.1 to 1
10 | CNc1cc(Nc2ccc3c(c2)CCN(C)C3)nc2c(C(=O)NC3CC3)cnn12 [Compound 60, N-cyclopropyl-5-((2-methyl-1,2,3,4-tetrahydroisoquinolin-6-yl)amino)-7-(methylamino)pyrazolo[1,5-a]pyrimidine-3-carboxamide] | 1 to 10
11 | CNc1cc(Nc2ccc3c(c2)CN(C)CC3)nc2c(C(=O)NC3CC3)cnn12 [Compound 61, N-cyclopropyl-5-((2-methyl-1,2,3,4-tetrahydroisoquinolin-7-yl)amino)-7-(methylamino)pyrazolo[1,5-a]pyrimidine-3-carboxamide] | 1 to 10
12 | CNc1cc(Nc2cc(C(F)(F)F)cnc2OC)nc2c(C(=O)NC3CC3)cnn12 [Compound 62, N-cyclopropyl-5-((2-methoxy-5-(trifluoromethyl)pyridin-3-yl)amino)-7-(methylamino)pyrazolo[1,5-a]pyrimidine-3-carboxamide] | 1 to 10
13 | CNc1cc(Nc2ccn(CC(F)(F)F)n2)nc2c(C(=O)NC3CC3)cnn12 [Compound 64, N-cyclopropyl-7-(methylamino)-5-((1-(2,2,2-trifluoroethyl)-1H-pyrazol-3-yl)amino)pyrazolo[1,5-a]pyrimidine-3-carboxamide] | > 0.3

The remaining lines, values ahead:

Row | IC50 [µM] | SMILES
14 | < 0.1 | CNc1cc(Nc2cccc3c2OC(F)(F)O3)nc2c(C(=O)NCC(C)(C)CO)cnn12 [Compound 48, 5-((2,2-difluorobenzo[d][1,3]dioxol-4-yl)amino)-N-(3-hydroxy-2,2-dimethylpropyl)-7-(methylamino)pyrazolo[1,5-a]pyrimidine-3-carboxamide]
15 | 1 to 10 | CNc1cc(Nc2c(Cl)ccc3c2OCO3)nc2c(C(=O)NCC(C)(C)CO)cnn12 [Compound 49, 5-((5-chlorobenzo[d][1,3]dioxol-4-yl)amino)-N-(3-hydroxy-2,2-dimethylpropyl)-7-(methylamino)pyrazolo[1,5-a]pyrimidine-3-carboxamide]
16 | < 0.1 | CNc1cc(Nc2cccc3c2OCO3)nc2c(C(=O)NCC(C)(C)CO)cnn12 [Compound 50, 5-(benzo[d][1,3]dioxol-4-ylamino)-N-(3-hydroxy-2,2-dimethylpropyl)-7-(methylamino)pyrazolo[1,5-a]pyrimidine-3-carboxamide]
17 | 0.1 to 1 | CNc1cc(Nc2cccc3c2OCCO3)nc2c(C(=O)NCC(F)(F)F)cnn12 [Compound 52, 5-((2,3-dihydrobenzo[b][1,4]dioxin-5-yl)amino)-7-(methylamino)-N-(2,2,2-trifluoroethyl)pyrazolo[1,5-a]pyrimidine-3-carboxamide]
18 | 0.1 to 1 | CNc1cc(Nc2ccnn2C)nc2c(C(=O)NC3CC3)cnn12 [Compound 53, N-cyclopropyl-5-((1-methyl-1H-pyrazol-5-yl)amino)-7-(methylamino)pyrazolo[1,5-a]pyrimidine-3-carboxamide]
19 | 0.1 to 1 | CNc1cc(Nc2ccccc2OC(F)(F)F)nc2c(C(=O)NC3CC3)cnn12 [Compound 54, N-cyclopropyl-7-(methylamino)-5-((2-(trifluoromethoxy)phenyl)amino) pyrazolo[1,5-a]pyrimidine-3-carboxamide]
20 | 0.1 to 1 | CC(C)(CO)CNC(=O)c1cnn2c(N)cc(Nc3cccc4c3OCO4)nc12 [Compound 58, 7-amino-5-(benzo[d][1,3]dioxol-4-ylamino)-N-(3-hydroxy-2,2-dimethylpropyl)pyrazolo[1,5-a]pyrimidine-3-carboxamide]
21 | 1 to 10 | CC(C)(CO)CNC(=O)c1cnn2c(NC3CC3)cc(Nc3cccc4c3OCO4)nc12 [Compound 59, 5-(benzo[d][1,3]dioxol-4-ylamino)-7-(cyclopropylamino)-N-(3-hydroxy-2,2-dimethylpropyl)pyrazolo[1,5-a]pyrimidine-3-carboxamide]
22 | < 0.1 | CNc1cc(Nc2cccc3c2OCCO3)nc2c(C(=O)NCC(C)(C)O)cnn12 [Compound 63, 5-((2,3-dihydrobenzo[b][1,4]dioxin-5-yl)amino)-N-(2-hydroxy-2-methylpropyl)-7-(methylamino)pyrazolo[1,5-a]pyrimidine-3-carboxamide]
23 | < 0.1 | CNc1cc(Nc2cccc3c2OCCO3)nc2c(C(=O)NCC(C)(O)CO)cnn12 (stereo not shown) [Compound 65, 5-((2,3-dihydrobenzo[b][1,4]doxin-5-yl)amino)-N-(2,3-dihydroxy-2-methylpropyl)-7-(methylamino)pyrazolo[1,5-a]pyrimidine-3-carboxamide]
24 | 0.1 to 1 | CNc1cc(Nc2cccn(-c3ccc(OC)nn3)c2=O)nc2c(C(=O)NCC(C)(C)CO)cnn12 [Compound 66, N-(3-hydroxy-2,2-dimethylpropyl)-5-((1-(6-methoxypyridazin-3-yl)-2-oxo-1,2-dihydropyridin-3-yl)amino)-7-(methylamino)pyrazolo[1,5-a]pyrimidine-3-carboxamide]
25 | 1 to 10 | CNc1cc(Nc2cccn(-c3ccc(OC)nn3)c2=O)nc2c(C(=O)NCC(F)(F)F)cnn12 [Compound 67, 5-((1-(6-methoxypyridazin-3-yl)-2-oxo-1,2-dihydropyridin-3-yl)amino)-7-(methylamino)-N-(2,2,2-trifluoroethyl)pyrazolo[1,5-a]pyrimidine-3-carboxamide]

Source: patent US20220135567A1, “TYK2 PSEUDOKINASE LIGANDS” (Ventyx Biosciences, Inc., priority 2019, published 2022)
